Measured values from patent publication US20230099756A1, “METHODS OF USING ANTI-CD79B IMMUNOCONJUGATES TO TREAT DIFFUSE LARGE B-CELL LYMPHOMA” (Genentech, Inc., priority 2021, published 2023).
Where a SMILES comes first, the peptide text is derived from it. [ ]: non-standard residue; d: D form. The star is where a group is joined. Dolaproine = CO[C@@H]([C@@H]1CCCN1)[C@@H](C)C(=O)O; Dil = CC[C@H](C)[C@H](NC)[C@@H](CC(=O)O)OC; X1 = C[C@@H](N*)[C@@H](O)c1ccccc1; NMeV = CN[C@H](C(=O)O)C(C)C

Experiments:
Assay type in all cases: in vitro ADME
[1] = target: CYP3A4 (Homo sapiens, UniProt P08684); assay: In vitro metabolism of unconjugated MMAE; settings: in vitro data
Source text: (§1) Based on a validated physiological-based PK model simulation, strong CYP3A4 inhibitors may increase the exposure (e.g., area under the concentration-time curve) of unconjugated MMAE by […] while acMMAE PK is not affected. Concomitant medications that are strong CYP3A4 inhibitors are considered cautionary as they may potentially lead to adverse reactions, which require close monitoring. […] Concomitant medications that are P-gp inhibitors are considered cautionary as they may potentially lead to adverse reactions, which require close monitoring.

[2] = target: CYP2D6 (Homo sapiens, UniProt P10635); assay: In vitro metabolism of unconjugated MMAE; settings: in vitro data
Source text: as §1

[3] = target: P-glycoprotein (P-gp) (Homo sapiens, UniProt P08183); assay: P-glycoprotein substrate and inhibitor status of MMAE
Source text: as §1

P-glycoprotein (P-gp), sequence (P08183 whole entry): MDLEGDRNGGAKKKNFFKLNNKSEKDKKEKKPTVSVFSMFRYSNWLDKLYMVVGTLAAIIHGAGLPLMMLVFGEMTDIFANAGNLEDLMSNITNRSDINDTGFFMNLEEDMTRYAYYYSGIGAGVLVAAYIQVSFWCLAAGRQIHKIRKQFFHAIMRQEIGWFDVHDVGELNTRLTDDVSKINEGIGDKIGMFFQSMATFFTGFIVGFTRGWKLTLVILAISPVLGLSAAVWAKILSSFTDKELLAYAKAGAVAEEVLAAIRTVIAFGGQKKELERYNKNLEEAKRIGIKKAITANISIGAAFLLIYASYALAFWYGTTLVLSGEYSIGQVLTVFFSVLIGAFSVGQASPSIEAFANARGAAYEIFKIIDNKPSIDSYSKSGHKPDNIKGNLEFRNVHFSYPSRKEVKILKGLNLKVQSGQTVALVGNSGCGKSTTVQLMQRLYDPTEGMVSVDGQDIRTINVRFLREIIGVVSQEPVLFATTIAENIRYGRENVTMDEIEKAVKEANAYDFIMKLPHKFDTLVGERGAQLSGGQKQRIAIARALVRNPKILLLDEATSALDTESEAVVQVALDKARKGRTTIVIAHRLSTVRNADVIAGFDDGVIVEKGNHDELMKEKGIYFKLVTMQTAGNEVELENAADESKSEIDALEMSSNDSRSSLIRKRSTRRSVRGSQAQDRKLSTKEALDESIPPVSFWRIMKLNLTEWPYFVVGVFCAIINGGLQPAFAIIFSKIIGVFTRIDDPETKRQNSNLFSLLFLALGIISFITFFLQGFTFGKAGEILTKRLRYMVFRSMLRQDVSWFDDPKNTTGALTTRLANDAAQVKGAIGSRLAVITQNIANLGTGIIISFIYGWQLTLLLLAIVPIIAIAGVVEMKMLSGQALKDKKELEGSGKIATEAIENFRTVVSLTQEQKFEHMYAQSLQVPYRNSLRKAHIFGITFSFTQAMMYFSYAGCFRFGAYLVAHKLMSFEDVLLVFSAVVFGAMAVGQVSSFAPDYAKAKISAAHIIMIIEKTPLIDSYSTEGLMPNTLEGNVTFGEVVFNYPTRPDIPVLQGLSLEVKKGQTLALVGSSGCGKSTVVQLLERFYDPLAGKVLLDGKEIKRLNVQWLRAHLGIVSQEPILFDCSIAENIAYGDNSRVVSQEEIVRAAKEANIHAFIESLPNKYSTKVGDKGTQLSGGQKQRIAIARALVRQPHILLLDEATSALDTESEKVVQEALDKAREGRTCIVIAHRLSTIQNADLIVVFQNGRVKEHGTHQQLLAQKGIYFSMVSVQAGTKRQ
CYP2D6, sequence (P10635 whole entry): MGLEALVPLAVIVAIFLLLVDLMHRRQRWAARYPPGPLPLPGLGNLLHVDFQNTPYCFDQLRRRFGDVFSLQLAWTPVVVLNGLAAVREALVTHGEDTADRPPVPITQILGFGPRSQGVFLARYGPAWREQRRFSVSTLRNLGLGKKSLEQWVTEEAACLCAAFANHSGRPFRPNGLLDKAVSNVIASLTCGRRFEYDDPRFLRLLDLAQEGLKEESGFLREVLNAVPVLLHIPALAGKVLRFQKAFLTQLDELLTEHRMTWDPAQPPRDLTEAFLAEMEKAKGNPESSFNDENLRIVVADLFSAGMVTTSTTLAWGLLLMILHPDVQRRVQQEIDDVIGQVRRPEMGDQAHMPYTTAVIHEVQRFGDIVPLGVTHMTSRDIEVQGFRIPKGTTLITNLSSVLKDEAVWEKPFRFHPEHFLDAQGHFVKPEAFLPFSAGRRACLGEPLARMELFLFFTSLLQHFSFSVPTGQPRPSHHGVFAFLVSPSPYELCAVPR
CYP3A4, sequence (P08684 whole entry): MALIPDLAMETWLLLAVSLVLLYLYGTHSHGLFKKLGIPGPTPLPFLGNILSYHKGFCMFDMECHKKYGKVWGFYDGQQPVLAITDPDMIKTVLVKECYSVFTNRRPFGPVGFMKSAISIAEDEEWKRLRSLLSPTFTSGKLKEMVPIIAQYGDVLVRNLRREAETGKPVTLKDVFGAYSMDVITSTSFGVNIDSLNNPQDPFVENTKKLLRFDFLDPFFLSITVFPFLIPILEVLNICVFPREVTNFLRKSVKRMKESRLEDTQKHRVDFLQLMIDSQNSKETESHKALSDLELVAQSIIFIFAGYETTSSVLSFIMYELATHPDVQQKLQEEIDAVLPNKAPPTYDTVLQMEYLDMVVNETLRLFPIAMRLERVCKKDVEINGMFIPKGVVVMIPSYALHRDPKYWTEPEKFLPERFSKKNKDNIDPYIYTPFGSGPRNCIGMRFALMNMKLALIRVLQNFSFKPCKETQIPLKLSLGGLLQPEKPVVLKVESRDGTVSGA

CC[C@H](C)[C@@H]([C@@H](CC(=O)N1CCC[C@H]1[C@H](OC)[C@@H](C)C(=O)N[C@H](C)[C@@H](O)c1ccccc1)OC)N(C)C(=O)[C@@H](NC(=O)[C@@H](NC)C(C)C)C(C)C [MMAE] (H-[NMeV]V[Dil][Dolaproine]-X1)
metabolism by CYP3A4 [1]: mainly metabolized by CYP3A4
metabolism by CYP2D6 [2]: to a lesser extent, by CYP2D6
P-gp inhibitor status [3]: not a P-gp inhibitor
P-gp substrate status [3]: P-glycoprotein (P-gp) substrate
